Measurements: PubChem BioAssay (NCI)
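Test compounds were applied to cells in 96-well plates for 48 hours at 5 doses. TGI marks complete inhibition of growth.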

Columns and labels:
Experiment in all cases: inhibition of tumour cell growth, NCI panel, 48 h
[1] = system: DU-145 prostate
[2] = system: SF-268 CNS
[3] = system: OVCAR-8 ovarian
[4] = system: SW-620 colon
[5] = system: HCT-116 colon
[6] = system: M14 melanoma
[7] = system: HCC-2998 colon
[8] = system: BT-549 breast
[9] = system: SK-MEL-28 melanoma
[10] = system: LOX IMVI melanoma
[11] = system: SF-539 CNS
[12] = system: UACC-62 melanoma
[13] = system: NCI-H522 lung
[14] = system: OVCAR-3 ovarian
[15] = system: KM12 colon
[16] = system: NCI-H23 lung
[17] = system: SK-OV-3 ovarian
[18] = system: ACHN renal
[19] = system: SN12C renal
[20] = system: MDA-N

| Compound | TGI [1] [µM] | TGI [2] [µM] | TGI [3] [µM] | TGI [4] [µM] | TGI [5] [µM] | TGI [6] [µM] | TGI [7] [µM] | TGI [8] [µM] | TGI [9] [µM] | TGI [10] [µM] | TGI [11] [µM] | TGI [12] [µM] | TGI [13] [µM] | TGI [14] [µM] | TGI [15] [µM] | TGI [16] [µM] | TGI [17] [µM] | TGI [18] [µM] | TGI [19] [µM] | TGI [20] [µM] |
| --- | --- | --- | --- | --- | --- | --- | --- | --- | --- | --- | --- | --- | --- | --- | --- | --- | --- | --- | --- | --- |
| NS(=O)(=O)c1nn2c(Br)c(-c3ccccc3)nc2s1 | 8.5 | 30.9 | 7.89 | 12.4 | 7.3 | 13.8 | 16.7 | 7.69 | 23.1 | 4.49 | 3.95 | 15.4 | 3.55 | 15.9 | 21.3 | 11.1 | 28.4 | 15.2 | 7.94 | – |
| CC(C)(C)OC(=O)NCC(O)CNC(=O)OC(C)(C)C | > 100 | > 100 | > 100 | > 100 | > 100 | > 100 | > 100 | > 100 | > 100 | > 100 | > 100 | > 100 | > 100 | > 100 | > 100 | > 100 | > 100 | > 100 | > 100 | – |
| CSc1nc2c(nc(C)c(=O)n2C2OCC(OC(C)=O)C(OC(C)=O)C2OC(C)=O)c(=O)[nH]1 (stereo not drawn) | – | > 100 | > 100 | > 100 | > 100 | > 100 | > 100 | – | > 100 | > 100 | – | > 100 | > 100 | > 100 | > 100 | > 100 | > 100 | > 100 | > 100 | – |
| O=[N+]([O-])c1ccccc1S(=O)(=O)c1cc(Cl)cc2c1NCCC2 | > 100 | > 100 | > 100 | > 100 | > 100 | > 100 | > 100 | > 100 | > 100 | > 100 | > 100 | > 100 | – | > 100 | > 100 | – | > 100 | > 100 | > 100 | – |
| COc1cc(C[S+]2CCCC2)c(SC)cc1C[S+]1CCCC1 | – | > 100 | > 100 | > 100 | > 100 | > 100 | > 100 | – | > 100 | > 100 | > 100 | > 100 | > 100 | > 100 | > 100 | > 100 | > 100 | > 100 | > 100 | – |
| O/N=C1/COC(C(F)(F)F)(C(F)(F)F)C1 | > 100 | > 100 | > 100 | > 100 | > 100 | > 100 | > 100 | – | > 100 | > 100 | > 100 | > 100 | > 100 | > 100 | > 100 | > 100 | > 100 | > 100 | > 100 | – |
| COc1nc(C(=O)NNC(=O)c2nc(OC)c3ccccc3c2-c2ccccc2)c(-c2ccccc2)c2ccccc12 | > 100 | > 100 | > 100 | > 100 | > 100 | > 100 | > 100 | > 100 | > 100 | – | – | > 100 | > 100 | > 100 | > 100 | > 100 | > 100 | > 100 | > 100 | – |
| Cc1ccc(S(=O)(=O)N/N=C/C(=C/c2ccc(Cl)cc2)CC(/C=N/NS(=O)(=O)c2ccc(C)cc2)=C\c2ccc(Cl)cc2)cc1 | > 100 | 55.2 | 12.8 | 27.6 | 18.9 | 48.1 | 8.98 | – | 20.2 | 3.73 | 34.2 | 27.4 | 16.1 | 12.2 | 47.2 | 26.8 | > 100 | 19.1 | 35 | 26.7 |
| CC1=C(C#N)C(C#N)(C#N)C(NN(C)C)C1 (stereo not drawn) | 33.8 | 78.7 | > 100 | > 100 | 29.2 | > 100 | 32.1 | – | > 100 | 29.7 | > 100 | 61.6 | 24.8 | – | 31.8 | 40.8 | > 100 | 34.6 | 27.3 | 21.9 |
| CCc1nc(N)nc(N)c1-c1ccc(Cl)c(Cl)c1 | > 100 | > 100 | – | > 100 | > 100 | > 100 | > 100 | > 100 | > 100 | > 100 | > 100 | > 100 | > 100 | > 100 | > 100 | > 100 | > 100 | > 100 | > 100 | – |
| C=C1CC(c2ccc(OCCCN3C(=O)c4ccccc4C3=O)c(OC)c2)OC1=O (stereo not drawn) | 24.5 | 23 | 15.1 | 4.75 | 6.6 | 17.3 | 27.7 | – | 9.34 | 4.53 | 1.69 | 10.2 | 1.54 | 8.96 | 28.2 | 18.4 | 29.4 | 18.7 | 25.4 | 16.4 |
| C[C@]12C=CC(=O)C=C1CC[C@H]1[C@@H]3C[C@@H](O)[C@](O)(C(=O)CO)[C@@]3(C)C[C@H](O)[C@@]12F | – | > 100 | > 100 | > 100 | > 100 | > 100 | > 100 | – | > 100 | > 100 | > 100 | > 100 | > 100 | > 100 | > 100 | > 100 | > 100 | > 100 | > 100 | – |
| CCCCCN=Cc1c(O)c(O)c(C(C)C)c2cc(C)c(-c3c(C)cc4c(C(C)C)c(O)c(O)c(C=NCCCCC)c4c3O)c(O)c12 | > 100 | 47.3 | > 100 | > 100 | > 100 | > 100 | 35.9 | 38.7 | 26.5 | 16.7 | > 100 | 33 | 25.2 | 65 | 19.8 | > 100 | 39.7 | 31.3 | > 100 | – |
